# Residue numbers refer to the chain shown, from its start. Numbers in names are those of the source. Where “and” joins values, the source holds several entries; their conditions need not be identical. Identical values can stand only once. Like-named read-outs stand apart in the source and are kept apart here.
# B1: Pnc1 (Saccharomyces cerevisiae S288C) (protein)
# chain: MKTLIVVDMQNDFISPLGSLTVPKGEELINPISDLMQDADRDWHRIVVTRDWHPSRHISFAKNHKDKEPYSTYTYHSPRPGDDSTQEGILWPVHCVKNTWGSQLVDQIMDQVVTKHIKIVDKGFLTDREYYSAFHDIWNFHKTDMNKYLEKHHTDEVYIVGVALEYCVKATAISAAELGYKTTVLLDYTRPISDDPEVINKVKEELKAHNINVVDK
# B2: D51N (protein, UniProt P53184 1-216, looked up, variant D51N)
# Nicotinamidase: B1 chain with D51N
# B3: K122A (protein, UniProt P53184 1-216, looked up, variant K122A)
# Nicotinamidase: B1 chain with K122A
# B4: K122R (protein, UniProt P53184 1-216, looked up, variant K122R)
# Nicotinamidase: B1 chain with K122R
# B5: D8A (protein, UniProt P53184 1-216, looked up, variant D8A)
# Nicotinamidase: B1 chain with D8A
# B6: D8N (protein, UniProt P53184 1-216, looked up, variant D8N)
# Nicotinamidase: B1 chain with D8N
# B7: D8E (protein, UniProt P53184 1-216, looked up, variant D8E)
# Nicotinamidase: B1 chain with D8E
# B8: H94A (protein, UniProt P53184 1-216, looked up, variant H94A)
# Nicotinamidase: B1 chain with H94A
# B9: D51A (protein, UniProt P53184 1-216, looked up, variant D51A)
# Nicotinamidase: B1 chain with D51A
# B10: H53A (protein, UniProt P53184 1-216, looked up, variant H53A)
# Nicotinamidase: B1 chain with H53A
# Legend:
# Pnc1 [1] = target: T1, Pnc1 (Saccharomyces cerevisiae, UniProt P53184); test: 15N kinetic isotope effect with substrates; assay type: biochemical, S. cerevisiae
# Pnc1 [2] = target: T1, Pnc1; test: Effect of EDTA or ZnCl2 on Pnc1 activity; assay type: biochemical, S. cerevisiae; conditions: data not shown
# [3] = target: nicotinamidase from Mycobacterium tuberculosis; conditions: cited from earlier work
# S. cerevisiae Pnc1 = conditions: cited from earlier work
# Pnc1 [4] = target: T1, Pnc1; test: Pnc1 competitive inhibition; assay type: biochemical, S. cerevisiae; conditions: for inhibition pattern: double-reciprocal analysis versus nicotinamide
# [5] = target: nicotinamidase from M. lysodeikticus; conditions: cited from earlier work
# [6] = target: nicotinamidase from Tortula cremoris; conditions: cited from earlier work
# [7] = target: nicotinamidase from Fleischmann’s yeast; conditions: cited from earlier work
# [8] = tested on: nicotinamidase from S. cerevisiae; conditions: cited from earlier work
# Pnc1 [9] = target: T1, Pnc1; assay type: biochemical, S. cerevisiae
# Pnc1 [10] = target: T1, Pnc1; test: HPLC assay of substrate activity; assay type: biochemical, S. cerevisiae; conditions: for kcat: HPLC assay, no activity above detection limit of 10^−5 s^−1
# Pnc1 [11] = target: T1, Pnc1; test: Product inhibition by ammonium ion, HPLC assay; assay type: biochemical, S. cerevisiae; conditions: for inhibition pattern: versus nicotinamide, data not shown
# Pnc1 [12] = target: T1, Pnc1; test: Dependence of kcat on pH; assay type: biochemical, S. cerevisiae; conditions: pH 4.5 to 10.5
# Pnc1 [13] = target: T1, Pnc1; test: 13C kinetic isotope effect with substrates; assay type: biochemical, S. cerevisiae
# yeast nicotinamidases = conditions: previous reports; cited from earlier work
# [14] = 25 °C in 0.1 N NaOH; cited from earlier work
# Pnc1 [15] = target: T1, Pnc1; conditions: 100 mM ammonium chloride and 5 mM nicotinic acid, 5 µM Pnc1, 150 minutes, pH 7.5; no nicotinamide detected
# [16] = tested on: nicotinamidase from M. lysodeikticus; conditions: cited from earlier work; remark: listed apart in the source
# [17] = tested on: nicotinamidase from M. tuberculosis; conditions: cited from earlier work
# Pnc1 WT or mutant [18] = test: Steady-state kinetic parameters of Pnc1 mutants, enzyme-coupled assay; assay type: biochemical, S. cerevisiae; conditions: substrate nicotinamide; for kcat: pH 7.5
# [19] = substrate: NC(=O)c1cnccn1; assay type: biochemical, S. cerevisiae; conditions: other: substrate of Pnc1, pH 7.5, 25.0 °C
# [20] = substrate: Cc1cncc(C(N)=O)c1; assay type: biochemical, S. cerevisiae; conditions: other: substrate of Pnc1, pH 7.5, 25.0 °C
# [21] = substrate: NC(=O)c1ccccc1; assay type: biochemical, S. cerevisiae; conditions: other: substrate of Pnc1, pH 7.5, 25.0 °C
# [22] = substrate: NC(=O)c1cccnc1; assay type: biochemical, S. cerevisiae; conditions: other: substrate of Pnc1, pH 7.5, 25.0 °C
# [23] = substrate: NC(=S)c1cccnc1; assay type: biochemical, S. cerevisiae; conditions: other: substrate of Pnc1, pH 7.5, 25.0 °C
# Pnc1 WT or mutant [24] = test: 15N kinetic isotope effect of Pnc1 mutants; assay type: biochemical, S. cerevisiae; conditions: substrate nicotinamide
# Pnc1 WT or mutant [25] = test: 13C kinetic isotope effect of Pnc1 mutants; assay type: biochemical, S. cerevisiae; conditions: substrate nicotinamide
# Pnc1 WT or mutant [26] = target: Pnc1 WT or mutant (Saccharomyces cerevisiae, UniProt P53184, K122R); test: 13C kinetic isotope effect of Pnc1 mutants; assay type: biochemical, S. cerevisiae; conditions: substrate nicotinamide
# Pnc1 WT or mutant (Saccharomyces cerevisiae, UniProt P53184, K122R), sequence (P53184 whole entry K122R): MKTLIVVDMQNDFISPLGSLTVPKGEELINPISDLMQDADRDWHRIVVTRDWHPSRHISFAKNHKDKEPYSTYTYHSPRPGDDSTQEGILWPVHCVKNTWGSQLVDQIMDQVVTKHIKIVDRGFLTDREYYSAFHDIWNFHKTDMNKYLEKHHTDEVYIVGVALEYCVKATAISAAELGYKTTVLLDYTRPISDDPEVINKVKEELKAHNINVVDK
molecule,measurement,setting,value
NC(=S)c1cccnc1 [thionicotinamide],increase in 15N KIE value compared to nicotinamide,Pnc1 [1],1.4%
same,15N KIE,"Pnc1 [1]; on V/K, pH 7.5",1.0262 ± 0.0019
"O=C(O)CN(CCN(CC(=O)O)CC(=O)O)CC(=O)O [EDTA, ethylenediaminetetraacetic acid]",inhibition of Pnc1,Pnc1 [2]; 10 mM,did not inhibit
O=Cc1cccnc1 [nicotinaldehyde],Ki,[3],290 nM
same,Ki,S. cerevisiae Pnc1,1400 nM
same,Ki,Pnc1 [4],0.94 ± 0.35 µM
same,Ki fold below the Km value of nicotinamide,Pnc1 [4]; vs Km 9.6 µM for nicotinamide,10 fold
same,Ki,[5],0.018 µM
CC(=O)c1cccnc1 [3-acetylpyridine],Ki,[6],305 µM
same,Ki,Pnc1 [4],316 ± 101 µM
same,inhibition pattern,Pnc1 [4],competitive inhibition
same,Ki,[7],65 µM
same,Ki,[5],160 µM
O=C(O)c1cnccn1 [pyrazinoic acid],Ki,Pnc1 [4],6700 ± 1700 µM
same,fold higher Ki value compared to nicotinic acid,Pnc1 [4],56 fold
same,inhibition pattern,Pnc1 [4],competitive inhibition patterns
C[n+]1cccc(C(N)=O)c1 [1-methylnicotinamide],substrate activity,"[8]; S. cerevisiae Pnc1, French et al.",no activity
same,fold decreased kcat/Km compared to nicotinamide,Pnc1 [9],8400 fold
NC(=O)C1=CN([C@@H]2O[C@H](COP(=O)(O)OP(=O)(O)OC[C@H]3O[C@@H](n4cnc5c(N)ncnc54)[C@H](O)[C@@H]3O)[C@@H](O)[C@H]2O)C=CC1 [β-nicotinamide adenine dinucleotide],substrate activity,Pnc1 [10],not substrates
same,kcat,Pnc1 [10],< 10^−5 ^c s^−1
same,kcat,Pnc1 [10]; listed as NAD^+,< 10^−5 s^−1
O=Cc1ccccc1 [benzaldehyde],Ki,Pnc1 [4],20600 ± 5700 µM
same,fold less potent inhibitor compared to nicotinaldehyde,Pnc1 [4],"22,000 fold"
same,Ki,[5],1800 µM
Cl.N [ammonium chloride],concentration required for inhibition,Pnc1 [11],greater than 10 mM
same,inhibition pattern,Pnc1 [11],non-competitive inhibition
same,inhibition pattern,Pnc1 [11]; listed as ammonium ion,non-competitive inhibition patterns
NC(=O)c1cccnc1 [nicotinamide],critical ionizations in kcat pH profile,Pnc1 [12],no critical ionizations
same,variation of kcat between the pH extremes,Pnc1 [12],4 fold
same,13C KIE,Pnc1 [13]; as percent,~ 1.2%
same,13C KIE,"Pnc1 [13]; on V/K, pH 7.5",1.0125 ± 0.0004
same,Km,yeast nicotinamidases,6 to 10 µM
same,pseudo-first-order rate of hydrolysis in basic solutions,[14],0.0301 h⁻¹
same,kcat,"Pnc1 [9]; substrate of Pnc1, pH 7.5",0.69 s⁻¹
same,15N KIE,Pnc1 [1]; as percent,~ 1.2% and 1.2%
same,15N KIE,"Pnc1 [1]; on V/K, pH 7.5",1.0122 ± 0.0002
"NC(=O)c1ccc[n+]([C@@H]2O[C@H](COP(=O)([O-])O)[C@@H](O)[C@H]2O)c1 [nicotinamide mononucleotide (NMN^+), nicotinamide mononucleotide]",substrate activity,Pnc1 [10],not substrates
same,kcat,Pnc1 [10],< 10^−5 ^c s^−1
O=C(O)c1cccnc1 [nicotinic acid],inhibition,S. cerevisiae Pnc1; French et al.,no inhibition
same,Ki,Pnc1 [4],120 ± 19 µM
same,inhibition pattern,Pnc1 [4],competitive inhibition patterns
same,reverse reaction rate (upper estimate),Pnc1 [15],< 10^−5 s^−1
Cc1cncc(C(N)=O)c1 [5-methylnicotinamide],13C KIE,"Pnc1 [13]; on V/K, pH 7.5",1.0269 ± 0.0037
same,Km,[16],360 µM
same,fold higher Km compared to nicotinamide,Pnc1 [9],6 fold
same,15N KIE,"Pnc1 [1]; on V/K, pH 7.5",1.0151 ± 0.0009
[Cl-].[Cl-].[Zn+2] [ZnCl2],effect on activity of wild type Pnc1,Pnc1 [2]; 2 mM,failed to increase activity
NC(=O)c1cnccn1 [pyrazinamide],Km,[8],200 µM
same,13C KIE,Pnc1 [13]; as percent,2.0%
same,13C KIE,"Pnc1 [13]; on V/K, pH 7.5",1.0196 ± 0.0023
same,fold decreased kcat/Km compared to nicotinamide,Pnc1 [9],4.5 fold
same,fold faster kcat compared to nicotinamide,Pnc1 [9],3.7 fold
same,fold higher Km compared to nicotinamide,Pnc1 [9],16 fold
same,Km,[17],300 µM
same,15N KIE,Pnc1 [1]; as percent,2.3%
same,15N KIE,"Pnc1 [1]; on V/K, pH 7.5",1.0231 ± 0.0007
B1,kcat,Pnc1 WT or mutant [18],0.69 ± 0.04 s⁻¹
same,Km,[19],157 ± 16 µM
same,kcat,[19],2.56 ± 0.1 s⁻¹
same,kcat/Km,[19],16000 ± 1000 M⁻¹ s⁻¹
same,Km,[20],61 ± 6 µM
same,kcat,[20],1.75 ± 0.05 s⁻¹
same,kcat/Km,[20],29000 ± 2000 M⁻¹ s⁻¹
same,Km,[21],25 ± 7 µM
same,kcat,[21],0.0088 ± 0.0004 s⁻¹
same,kcat/Km,[21],350 ± 90 M⁻¹ s⁻¹
same,Km,[22],9.6 ± 2.1 µM
same,kcat,[22],0.69 ± 0.04 s⁻¹
same,kcat/Km,[22],72000 ± 12000 M⁻¹ s⁻¹
same,kcat/Km,[23],50 ± 17 M⁻¹ s⁻¹
same,15N KIE,Pnc1 WT or mutant [24]; as percent,~ 1.25%
same,15N KIE,Pnc1 WT or mutant [24]; pH 7.5,1.0122 ± 0.0002
same,13C KIE,Pnc1 WT or mutant [25]; as percent,~ 1.25%
same,13C KIE,Pnc1 WT or mutant [25]; pH 7.5,1.0125 ± 0.0004
B2,fold more active than the D51A mutant,Pnc1 WT or mutant [18],3 fold
same,kcat,Pnc1 WT or mutant [18],0.064 ± 0.012 s⁻¹
same,15N KIE,Pnc1 WT or mutant [24]; as percent,~ 0.5%
same,15N KIE,Pnc1 WT or mutant [24]; pH 7.5,1.0047 ± 0.0006
same,13C KIE,Pnc1 WT or mutant [25]; as percent,~ 0.5%
same,13C KIE,Pnc1 WT or mutant [25]; pH 7.5,1.0058 ± 0.0006
B3,fold lower kcat compared to Pnc1 WT,Pnc1 WT or mutant [18],16 fold
same,kcat,Pnc1 WT or mutant [18],0.044 ± 0.023 s⁻¹
B4,fold lower kcat compared to Pnc1 WT,Pnc1 WT or mutant [18],767 fold
same,kcat,Pnc1 WT or mutant [18],0.0009 ± 0.0002 s⁻¹
same,15N KIE,Pnc1 WT or mutant [24]; pH 7.5,1.0127 ± 0.0003
same,13C effect higher than wild-type enzyme,Pnc1 WT or mutant [26],~ 0.4%
same,13C KIE,Pnc1 WT or mutant [25]; pH 7.5,1.0172 ± 0.0001
B5,fold lower kcat compared to Pnc1 WT,Pnc1 WT or mutant [18],767 fold
same,kcat,Pnc1 WT or mutant [18],0.0009 ± 0.0001 s⁻¹
B6,fold lower kcat compared to Pnc1 WT,Pnc1 WT or mutant [18],1150 fold
same,kcat,Pnc1 WT or mutant [18],0.0006 ± 0.0001 s⁻¹
B7,fold lower kcat compared to Pnc1 WT,Pnc1 WT or mutant [18],100 fold
same,kcat,Pnc1 WT or mutant [18],0.0070 ± 0.0001 s⁻¹
same,15N KIE,Pnc1 WT or mutant [24]; pH 7.5,1.0218 ± 0.0015
same,13C KIE,Pnc1 WT or mutant [25]; pH 7.5,1.0258 ± 0.0012
B8,kcat,Pnc1 WT or mutant [18],0.020 ± 0.002 s⁻¹
B9,kcat,Pnc1 WT or mutant [18],0.020 ± 0.005 s⁻¹
same,15N KIE,Pnc1 WT or mutant [24]; pH 7.5,1.0166 ± 0.0018
same,13C KIE,Pnc1 WT or mutant [25]; pH 7.5,1.0075 ± 0.0015
B10,kcat,Pnc1 WT or mutant [18],0.014 ± 0.002 s⁻¹
